Test results as given in patent US6713475B2, “Tricyclic benzodiazepines as vasopressin receptor antagonists” (Ortho-McNeil Pharmaceutical, Inc., priority 1999, dated 2004).
Where “and” joins values, the source holds several entries; their conditions need not be identical. Identical values can stand only once.

Target: V2 (Homo sapiens, UniProt P30518)
Test: In vitro recombinant vasopressin receptor binding assay (V2 Bdg), displacement of 3H-arginine vasopressin
Parameters: expressed in transfected cells; host or cells: HEK-293
Conditions: 0.1 uM; printed in parentheses in place of IC50
Method: In vitro Recombinant Vasopressin Receptor Binding Assay
Compounds were assessed for their ability to displace ^3H-arginine vasopressin from the human V-1 or V-2 receptor in HEK-293 cells. […] Into wells of 96-well round bottom polypropylene plates were added buffer, test compound, membrane (containing cloned human V-1 or V-2 receptor), and ^3H-vasopressin. The reaction plates were allowed to sit at room temperature for one hour. The samples were filtered through Unifilter GF/C plates (presoaked in 0.3 polyethyleneimine). The plates were washed 5 times with cold physiological saline containing 0.05% Tween 20. After drying, the bottom of the filter plates were sealed and 0.025 ml of Microscint-20 was added to each filter. The top of the plate was sealed, and the plate was counted.

Molecule	V2 Bdg % inh
CC(C)N1CCN2Cc3ccccc3N(C(=O)c3ccc(NC(=O)c4ccccc4-c4ccccc4)cc3Cl)CC2C1 (racemic) [Compound 60, (RS)-2-Phenyl-N-[3-chloro-4-(1,3,4,12a-tetrahydro-2-isopropyl-6H-[1,4]pyrazino[4,3-a][1,4]-benzodiazepin-11(12H)-yl-carbonyl)phenyl]benzamide]	(25%/0.1 uM)
(RS)-2,6-Dimethyl-N-[3-chloro-4-(1,3,4,12a-tetrahydro-2-methyl-6H-[1,4]pyrazino[4,3-a][1,4]-benzodiazepin-11(12H)-yl-carbonyl)phenyl]benzamide [Compound 63]	(9%/0.1 uM)
O=C(Nc1ccc(C(=O)N2CC3CSCCN3Cc3ccccc32)cc1)c1ccccc1-c1cccs1 (racemic) [Compound 52, (RS)-2-(2-Thienyl)-N-[4-(1,3,4,12a-tetrahydro-6H-[1,4]thiazino[4,3-a][1,4]-benzodiazepin-11(12H)-yl-carbonyl)phenyl]benzamide]	(36%/0.1 uM)
O=C(Nc1ccc(C(=O)N2CC3CSCCN3Cc3ccccc32)c(F)c1)c1ccccc1-c1ccsc1 (racemic) [Compound 51, (RS)-2-(3-Thienyl)-N-[3-fluoro-4-(1,3,4,12a-tetrahydro-6H-[1,4]thiazino[4,3-a][1,4]-benzodiazepin-11(12H)-yl-carbonyl)phenyl]benzamide]	(62%/0.1 uM)
(RS)-2-(3-Thienyl)-N-[4-(1,3,4,12a-tetrahydro-6H-[1,4]thiazino[4,3-a][1,4]-benzodiazepin-11(12H)-yl-carbonyl)phenyl]benzamide [Compound 49]	(59%/0.1 uM)
CN1CCN2Cc3ccccc3N(C(=O)c3ccc(NC(=O)c4ccccc4F)cc3Cl)CC2C1 (racemic) [Compound 64, (RS)-2-Fluoro-N-[3-chloro-4-(1,3,4,12a-tetrahydro-2-methyl-6H-[1,4]pyrazino[4,3-a][1,4]-benzodiazepin-11(12H)-yl-carbonyl)phenyl]benzamide]	0% and 5%
Cc1ccc(-c2ccccc2C(=O)Nc2ccc(C(=O)N3CC4CN(C)CCN4Cc4ccccc43)cc2C)cc1 (racemic) [Compound 79, (RS)-2-(4-Methyl-phenyl)-N-[2-methyl-4-(1,3,4,12a-tetrahydro-2-methyl-6H-(1,4]pyrazino[4,3-a][1,4]-benzodiazepin-11(12H)-yl-carbonyl)phenyl]benzamide]	(33%/0.1 uM)
CN1CCN2Cc3ccccc3N(C(=O)c3ccc(NC(=O)c4ccccc4-c4ccccc4)cc3C(F)(F)F)CC2C1 (racemic) [Compound 75, (RS)-2-Phenyl-N-[3-trifluoromethyl-4-(1,3,4,12a-tetrahydro-2-methyl-6H-[1,4]pyrazino[4,3-a][1,4]-benzodiazepin-11(12H)-yl-carbonyl)phenyl]benzamide]	(2%/0.1 uM)
CN1CCN2Cc3ccccc3N(C(=O)c3ccc(NC(=O)c4cccc(Cl)c4F)cc3Cl)CC2C1 (racemic) [Compound 65, (RS)-2-Fluoro-3-chloro-N-[3-chloro-4-(1,3,4,12a-tetrahydro-2-methyl-6H-[1,4]pyrazino[4,3-a][1,4]-benzodiazepin-11(12H)-yl-carbonyl)phenyl]benzamide]	(17%/0.1 uM)
(RS)-2-Methyl-5-fluoro-N-[3-chloro-4-(1,3,4,12a-tetrahydro-2-methyl-6H-[1,4]pyrazino[4,3-a][1,4]-benzodiazepin-11(12H)-yl-carbonyl)phenyl]benzamide [Compound 94]	(39%/0.1 uM)

Same assay, conditions: membrane with cloned human V-2 receptor (HEK-293)

Molecule	IC50
O=C(Nc1ccc(C(=O)N2CC3CSCCN3Cc3ccccc32)c(Cl)c1)c1cc(F)ccc1-c1ccccc1 (racemic) [Compound 104, (RS)-2-Phenyl-5-fluoro-N-[3-chloro-4-(1,3,4,12a-tetrahydro-6H-[1,4]thiazino[4,3-a][1,4]-benzodiazepin-11(12H)-yl-carbonyl)phenyl]benzamide]	79 nM
CN1CCN2Cc3ccccc3N(C(=O)c3ccc(NC(=O)c4ccccc4-c4ccccc4)cc3Cl)CC2C1 (racemic) [Compound 56, (RS)-2-Phenyl-N-[3-chloro-4-(1,3,4,12a-tetrahydro-2-methyl-6H-[1,4]pyrazino[4,3-a][1,4]-benzodiazepin-11(12H)-yl-carbonyl)phenyl]benzamide]	35 nM and 54 nM
Cc1csc(-c2ccccc2C(=O)Nc2ccc(C(=O)N3CC4CSCCN4Cc4ccccc43)cc2)c1 (racemic) [Compound 53, (RS)-2-(4-Methyl-2-thienyl)-N-[4-(1,3,4,12a-tetrahydro-6H-[1,4]thiazino[4,3-a][1,4]-benzodiazepin-11(12H)-yl-carbonyl)phenyl]benzamide]	15 nM
Cc1ccc(-c2ccccc2C(=O)Nc2ccc(C(=O)N3CC4COCCN4Cc4ccccc43)cc2)cc1 (racemic) [Compound 12, (RS)-2-(4-Methyl-phenyl)-N-[4-(1,3,4,12a-tetrahydro-6H-[1,4]oxazino[4,3-a][1,4]-benzodiazepin-11(12H)-yl-carbonyl)phenyl]benzamide]	6 nM
O=C(Nc1ccc(C(=O)N2CC3CS(=O)(=O)CCN3Cc3ccccc32)cc1)c1ccccc1-c1ccccc1 (racemic) [Compound 55, (RS)-2-Phenyl-N-[4-(1,3,4,12a-tetrahydro-2,2-dioxo-6H-[1,4]thiazino[4,3-a][1,4]-benzodiazepin-11(12H)-yl-carbonyl)phenyl]benzamide]	140 nM

Now from value to molecule:

IC50	Molecule
6 nM	COc1ccc(-c2ccccc2C(=O)Nc2ccc(C(=O)N3CC4COCCN4Cc4ccccc43)c(Cl)c2)cc1 (racemic) [Compound 112, (RS)-2-(4-Methoxy-phenyl)-N-[3-chloro-4-(1,3,4,12a-tetrahydro-6H-[1,4]oxazino[4,3-a][1,4]-benzodiazepin-11(12H)-yl-carbonyl)phenyl]benzamide]
22 nM	O=C(Nc1ccc(C(=O)N2CC3CSCCN3Cc3ccccc32)c(F)c1)c1ccccc1-c1ccccc1 (racemic) [Compound 106, (RS)-2-Phenyl-N-[3-fluoro-4-(1,3,4,12a-tetrahydro-6H-[1,4]thiazinol[4,3-a][1,4]-benzodiazepin-11(12H)-yl-carbonyl)phenyl]benzamide]
6 nM	Cc1ccc(F)cc1C(=O)Nc1ccc(C(=O)N2CC3COCCN3Cc3ccccc32)c(Cl)c1 (racemic) [Compound 110, (RS)-2-Methyl-5-fluoro-N-[3-chloro-4-(1,3,4,12a-tetrahydro-6H-[1,4]oxazino[4,3-a][1,4]-benzodiazepin-11(12H)-yl-carbonyl)phenyl]benzamide]
4 nM	O=C(Nc1ccc(C(=O)N2CC3COCCN3Cc3ccccc32)c(Cl)c1)c1ccc(F)cc1-c1ccccc1 (racemic) [Compound 114, (RS)-2-Phenyl-4-fluoro-N-[3-chloro-4-(1,3,4,12a-tetrahydro-6H-[1,4]oxazino[4,3-a][1,4]-benzodiazepin-11(12H)-yl-carbonyl)phenyl]benzamide]
9 nM	COc1ccc(C(=O)Nc2ccc(C(=O)N3CC4COCCN4Cc4ccccc43)c(Cl)c2)c(-c2ccccc2)c1 (racemic) [Compound 115, (RS)-2-Phenyl-4-methoxy-N-[3-chloro-4-(1,3,4,12a-tetrahydro-6H-[1,4]oxazino[4,3-a][1,4]-benzodiazepin-11(12H)-yl-carbonyl)phenyl]benzamide]
8 nM	COc1cccc(-c2ccccc2C(=O)Nc2ccc(C(=O)N3CC4COCCN4Cc4ccccc43)c(Cl)c2)c1 (racemic) [Compound 113, (RS)-2-(3-Methoxy-phenyl)-N-[3-chloro-4-(1,3,4,12a-tetrahydro-6H-[1,4]oxazino[4,3-a][1,4]-benzodiazepin-11(12H)-yl-carbonyl)phenyl]benzamide]
7 nM	O=C(Nc1ccc(C(=O)N2CC3CSCCN3Cc3ccccc32)c(O)c1)c1ccccc1-c1ccccc1 (racemic) [Compound 109, (RS)-2-Phenyl-N-[3-hydroxy-4-(1,3,4,12a-tetrahydro-6H-[1,4]thiazino[4,3-a][1,4]-benzodiazepin-11(12H)-yl-carbonyl)phenyl]benzamide]
23 nM	O=C(Nc1ccc(C(=O)N2CC3COCCN3Cc3ccccc32)c(Cl)c1)c1cc(F)ccc1-c1ccccc1 (racemic) [Compound 111, (RS)-2-Phenyl-5-fluoro-N-[3-chloro-4-(1,3,4,12a-tetrahydro-6H-[1,4]oxazino[4,3-a][1,4]-benzodiazepin-11(12H)-yl-carbonyl)phenyl]benzamide]
21 nM	Cc1cc(NC(=O)c2ccccc2-c2ccccc2)ccc1C(=O)N1CC2CSCCN2Cc2ccccc21 (racemic) [Compound 107, (RS)-2-Phenyl-N-[3-methyl-4-(1,3,4,12a-tetrahydro-6H-[1,4]thiazino[4,3-a][1,4]-benzodiazepin-11(12H)-yl-carbonyl)phenyl]benzamide]

Same assay, conditions: read-out: V2 Bdg % inh

inhibition at 0.1 µM	Molecule
71%	CN1CCN2Cc3ccccc3N(C(=O)c3ccc(NC(=O)c4ccccc4-c4ccccc4)cc3Cl)CC2C1 (racemic) [Compound 56, (RS)-2-Phenyl-N-[3-chloro-4-(1,3,4,12a-tetrahydro-2-methyl-6H-[1,4]pyrazino[4,3-a][1,4]-benzodiazepin-11(12H)-yl-carbonyl)phenyl]benzamide]
12%	COc1cccc2c1N(C(=O)c1ccc(NC(=O)c3ccccc3-c3ccccc3)cc1)CC1CSCCN1C2 (racemic) [Compound 40, (RS)-2-Phenyl-N-[4-(10-methoxy-1,3,4,12a-tetrahydro-6H-[1,4]thiazino[4,3-a][1,4]-benzodiazepin-11(12H)-yl-carbonyl)phenyl]benzamide]
57%	Cc1csc(-c2ccccc2C(=O)Nc2ccc(C(=O)N3CC4COCCN4Cc4ccccc43)cc2)c1 (racemic) [Compound 54, (RS)-2-(4-Methyl-2-thienyl)-N-[4-(1,3,4,12a-tetrahydro-6H-[1,4]oxazino[4,3-a][1,4]-benzodiazepin-11(12H)-yl-carbonyl)phenyl]benzamide]
